How the values were obtained:
[1] = tested on: GRK2-mediated phosphorylation of Srsf1; assay: Cardiac Srsf1 phosphorylation under basal conditions in non-transgenic B6 mice after short-term treatment; format: in vivo, mouse; conditions: 10 mg/kg i.p., 5 h, immunoblot, relative to vehicle
Method: A, The GRK2-mediated phosphorylation of Srsf1 was determined by immunoblot in cardiac lysates prepared from hearts of non-transgenic B6 mice after treatment (i.p.) for 5 h with 10 mg/kg of 1-(1,3-benzodioxol-5-yl)-4-(cyclopropane-carbonyl)-3-hydroxy-2-phenyl-2H-pyrrol-5-one (“Compound-1”), 4-(1,3-benzodioxol-5-yl)pyrimidine (“Compound-4”), 1-(1,3-benzodioxol-5-ylmethyl)-5-(4-fluorophenyl)-2-methyl-pyrrole-3-carboxamide (“Compound-2”), or (4R)-N3-(1,3-benzodioxol-5-ylmethyl)-N4-[[3-(trifluoromethyl)phenyl]-methyl]pyrrolidine-3,4-dicarboxamide (“Compound-5”) relative to vehicle-treated B6 controls (“con”). […] B, Left panel: The AAC-induced cardiac p-Srsf1 content was determined in cardiac lysates from B6 mice with AAC after treatment for 7 days with 5 mg/kg/d of 1-(1,3-benzodioxol-5-yl)-4-(cyclopropane-carbonyl)-3-hydroxy-2-phenyl-2H-pyrrol-5-one (“Compound-1”) or (4R)-N3-(1,3-benzodioxol-5-ylmethyl)-N4-[[3-(trifluoromethyl)phenyl]-methyl]pyrrolidine-3,4-dicarboxamide (“Compound-5”) relative to vehicle-treated B6 controls with AAC (“AAC-con”). […] Right and lower panels: Cardiac function parameters were determined by echocardiography in B6 mice with AAC after treatment for 7 days with “Compound-1” or “Compound-5” relative to vehicle-treated B6 controls with AAC ((±s.d.; n=5 (A) and n=3 (B); Dunnett's Multiple Comparison Test vs. con (A) or AAC-con (B)).

[2] = tested on: GRK2-mediated phosphorylation of SRSF1/Srsf1; assay: Immunoblot of SRSF1/Srsf1 phosphorylation in isolated neonatal cardiomyocytes from Tg-SRSF1 mice; format: cell-based, mouse; conditions: 10 microM, 60 h, relative to vehicle
Method: A, The GRK2-mediated phosphorylation of SRSF1/Srsf1 was determined by immunoblot in lysates from isolated neonatal cardiomyocytes from Tg-SRSF1 mice after incubation for 60 h with 10 microM of paroxetine, 1-(1,3-benzodioxol-5-yl)-4-(cyclopropane-carbonyl)-3-hydroxy-2-phenyl-2H-pyrrol-5-one (“Compound-1”) or 4-(1,3-benzodioxol-5-yl)pyrimidine (“Compound-4”) relative to vehicle-treated control (“C”) cardiomyocytes. B, Immunoblot detection of GRK2-mediated phosphorylation of SRSF1 (pSRSF1) was performed with lysates from HEK (human embryonic kidney) cells incubated for 60 h with 10 microM of 4-(1,3-benzodioxol-5-yl)pyrimidine (“Compound-4”), 1-(1,3-benzodioxol-5-ylmethyl)-5-(4-chlorophenyl)-2-methyl-pyrrole-3-carboxamide (“Compound-24”) or (4R)-N3-(1,3-benzodioxol-5-ylmethyl)-N4-[[3-(trifluoromethyl)phenyl]-methyl]pyrrolidine-3,4-dicarboxamide (“Compound-5”) relative to vehicle-treated controls (“C”).
Briefly, the hearts were dissected out from 2-3 day-old mice, atria and aorta were removed, and the hearts were transferred into sterile buffer A (137 mM NaCl, 5.36 mM KCl, 0.81 mM MgSO4, 5.55 mM dextrose, 0.44 mM KH2PO4, 0.34 mM Na2HPO4, 20 mM HEPES, 100 U/ml penicillin, 100 microg/ml streptomycin, pH 7.4). […]

Row | Compound | GRK2-mediated Srsf1 phosphorylation under basal conditions in the hearts of non-transgenic B6 mice [1] | SRSF1/Srsf1 phosphorylation in isolated Tg-SRSF1 cardiomyocytes [2]
1 | O=C(C1=C(O)C(c2ccccc2)N(c2ccc3c(c2)OCO3)C1=O)C1CC1 (stereo not shown) [Compound-1, 1-(1,3-benzodioxol-5-yl)-4-(cyclopropane-carbonyl)-3-hydroxy-2-phenyl-2H-pyrrol-5-one] | decreased | decreased
2 | c1cc(-c2ccc3c(c2)OCO3)ncn1 [Compound-4, 4-(1,3-benzodioxol-5-yl)pyrimidine] | decreased | decreased

Source: patent US11628159B2, “Cell-protective compounds and their use” (ETH ZURICH, priority 2017, dated 2023)
